In test [1] the test system is IRF3 translocation induced by dsDNA (ISD). Put plainly: IRF3 translocation inhibition, confocal/immunofluorescence after ISD transfection. The test is classed as cell-based. The conditions noted are these: Homo sapiens, % means blockage of IRF3 translocation induced by dsDNA (ISD). As to the method: Inhibition of IFNβ expression was measured by Luciferase induction at 24 hours after transfection of ISD. […]. […] FIG. 3H qPCR of IFNβ 1 performed in MEFs treated same as in FIG. 3A. FIG. 3I qPCR of CCL5 performed in MEFs treated same as in FIG. 3A.
Immunofluorescence Microscopy: Cells were cultured and treated in their appropriate media on Lab-Tek II chamber slides. Cell were fixed with 4% paraformaldehyde for 15 minutes in at 37° C. and permeabilized with 0.05% Triton X-100 for 5 minutes at room temperature. Immunostaining was performed with rabbit-anti-STING polyclonal, rabbit-anti-IRF3 (Santa Cruz Biotechnology) or rabbit-anti-p65 (Cell Signaling) followed by fluorescence conjugated secondary antibodies (FITC-goat-anti-rabbit) (Invitrogen).

Test [2] has as its system IFNβ expression (type I IFNβ promoter driving luciferase). Put plainly: IFNβ promoter luciferase assay in hTERT-pIFNβ-Glu cells transfected with ISD. The class given is cell-based, human. The conditions noted are these: Homo sapiens. On the procedure:
Inhibition of IFNβ expression was measured by Luciferase induction at 24 hours after transfection of ISD, DMSO is shown (230), ISD treatment only (220) was used as a control, according to an embodiment of the invention;
Inhibition of IFNβ expression was measured by Luciferase induction at 24 hours after transfection of ISD, Mock is shown (210), ISD treatment only (220) was used as a control, according to an embodiment of the invention;
Identification of small molecule inhibitors of STING. In the presence of cytosolic DNA species, STING becomes activated to drive the transcription of cytokines such as type I IFN. Compounds binding to STING via TSA were subsequently examined for their ability to prevent cytosolic DNA species from activating the type I interferon (IFN) promoter, using a live cell assay. This assay comprised immortalized human fibroblasts (hTERT) that were stably transfected with the type I IFN promoter driving luciferase as well as the CMV promoter driving SEAP (hTERT-pIFNβ-Glu). The live cell assay has previously been disclosed in PCT/US2019/025380 entitled IFN-Beta Reporter System for Immortalized Primary Cells inventor Glen N. Barber, which was filed Apr. 2, 2018 and published as WO2019195285, and which is herein incorporated by reference in its entirety and for all purposes. The ability of the small molecules to prevent activation of the type I IFN promoter and the transcription of luciferase, but not SEAP in response to cytosolic DNA species was assessed. The activation of STING, typically by CDNs, in turn activates the transcription factors NF-κB and IRF3, both of which are required to induce the transcriptional stimulation of the Type I IFN promoter, but not the CMV promoter as IRF3 and NF-kB transcription factor binding sites are not contained in the CMV promoter. The assay identified the small molecule Compound W1 in the first screen (HTS), where the level of luciferase was not able to activate the type I IFN promoter or induce the expression of luciferase (see Table I and Table II).
Inhibition of IFNβ expression was measured by Luciferase induction at 24 hours after transfection of ISD. ISD only treatment was used as control.
Inhibition of IFNβ expression was measured by Luciferase induction at 24 hours after transfection of ISD, Mock is shown (210), ISD treatment only (220) was used as a control.
Luciferase assay: hTERT-BJ1 Telomerase Fibroblasts stably expressing the luciferase gene under the control of the interferon-beta promoter and SEAP gene under control of the CMV promoter) (hTERT-pIFNβ-Glu) were generated by the Barber laboratory. Luciferase assay was performed using Secrete-Pair Dual Luminescence Assay Kit from GeneCopoeia following the manufacturer's protocol.

The test system of another test is pIRF3, pSTING. Put plainly: Western blot of pIRF3, pSTING, pTBK1 after ISD transfection in hTERT cells. The test is classed as cell-based, human. The note with it: Homo sapiens. On the procedure:
FIG. 1C are photographs showing Western blot analysis of STING, phospho-TBK1 (pTBK1) and phospho-IRF3 (pIRF3) performed at 6 hours after ISD transfection with/without W1 treatment same as FIG. 1A, Mock is shown (210), ISD treatment only (220) was used as a control, according to an embodiment of the invention;
Immunoblot analysis: Equal amounts of proteins were resolved on sodium dodecyl sulfate (SDS)-Polyacrylamide gels and then transferred to polyvinylidene fluoride (PVDF) membranes (Millipore). After blocking with 5% Blocking Reagent, membranes were incubated with various primary antibodies (and appropriate secondary antibodies). The image was resolved using an enhanced chemiluminescence system ECL (Thermo Scientific) and detected by autoradiography (Kodak). Antibodies: rabbit polyclonal antibody against STING was developed in our laboratory as described previously in Ishikawa et al, 2008; other antibodies were obtained from following sources: β-actin (Sigma Aldrich), p-IRF3 (Cell Signaling), IRF3 (Santa Cruz Biotechnology), p-p65 (Cell Signaling), p65 (Cell Signaling), p-TBK1 (Cell Signaling), TBK1 (Abcam), cGAS (Cell Signaling).
(In general: Immunoblotting shows a protein as a band on a membrane.)

Molecules are shown by their SMILES.

Regarding `CCc1ccc(-c2nc(CN3CCN(c4cc(C)nc(N(C)C)n4)CC3)cs2)cc1` [Compound W15], the inhibition (usually the change of the read-out against control, counted positive when it falls) at 25 µM in test [1] lay in the range of 90 to 100%. For the same molecule, in test [2], the inhibition at 5 µM stood at 69%. For the same molecule, the inhibition at 10 µM in the test with pIRF3, pSTING fell in the range of 90 to 100%.
Turning to `Cc1cc(N2CCN(Cc3csc(-c4ccc(Cl)cc4)n3)CC2)nc(N(C)C)n1` [Compound W14, 4-(4-{[2-(4-chlorophenyl)-1,3-thiazol-4-yl]methyl}piperazin-1-yl)-N,N,6-trimethylpyrimidin-2-amine], in test [1], the inhibition at 25 µM was ~70%. In addition, the inhibition at 5 µM in test [2] stood at 42%. Moreover, the inhibition at 10 µM in the test with pIRF3, pSTING lay within 90 to 100%.
The like results for `Cc1cc(N2CCN(Cc3ncc(-c4ccccc4)s3)CC2)nc(N(C)C)n1` [Compound W20, N,N,4-trimethyl-6-{4-[(5-phenyl-1,3-thiazol-2-yl)methyl]piperazin-1-yl}pyrimidin-2-amine] were, in that order, 40 to 50%, 79% and < 10%.
On to `COc1ccc(-c2nc(CN3CCN(c4nc(C)nc(N(C)C)n4)CC3)cs2)cc1OC` [Compound W4, 4-(4-{[2-(3,4-dimethoxyphenyl)-1,3-thiazol-4-yl]methyl}piperazin-1-yl)-N,N,6-trimethyl-1,3,5-triazin-2-amine], for which the inhibition at 5 µM in test [2] is 4%. Moreover, the inhibition at 10 µM with pIRF3, pSTING is < 10%.
The like results for `COc1ccc(-c2nc(CN3CCN(c4nc(C)cc(C(C)C)n4)CC3)cs2)cc1OC` [Compound W5, 2-(4-{[2-(3,4-dimethoxyphenyl)-1,3-thiazol-4-yl]methyl}piperazin-1-yl)-4-methyl-6-(propan-2-yl)pyrimidine] were, in that order, 18% and < 10%.
Regarding `COc1ccc(-c2nc(CN3CCN(c4cc(C)nc(N(C)C)n4)CC3)cs2)c(OC)c1` [Compound W13, 4-(4-{[2-(2,4-dimethoxyphenyl)-1,3-thiazol-4-yl]methyl}piperazin-1-yl)-N,N,6-trimethylpyrimidin-2-amine], the inhibition at 25 µM in test [1] lay within 40 to 50%. Moreover, the inhibition at 5 µM in test [2] is 30%. Also, the inhibition at 10 µM in the test on pIRF3, pSTING is 90 to 100%.
For the molecule `COc1ccc(-c2nc(CN3CCN(c4cc(C)nc(N(C)C)n4)CC3)cs2)cc1OC` [Compound W3, 4-(4-{[2-(3,4-dimethoxyphenyl)-1,3-thiazol-4-yl]methyl}piperazin-1-yl)-N,N,6-trimethylpyrimidin-2-amine], the inhibition at 25 µM in test [1] lay within 40 to 50%. Besides, the inhibition at 5 µM in test [2] was -37%. For the same molecule, the inhibition at 10 µM in the test on pIRF3, pSTING was in the range of 40 to 50%.
Turning to `Cc1cc(N2CCN(Cc3csc(-c4ccc(C(F)(F)F)cc4)n3)CC2)nc(N(C)C)n1` [Compound W11, N,N,4-trimethyl-6-[4-({2-[4-(trifluoromethyl)phenyl]-1,3-thiazol-4-yl}methyl)piperazin-1-yl]pyrimidin-2-amine], the inhibition at 25 µM in test [1] fell in the range of 90 to 100%. Also, the inhibition at 5 µM in test [2] amounted to 38%. Also, in the test on pIRF3, pSTING, the inhibition at 10 µM lay within 90 to 100%.

Source of the values: patent US20240270737A1, “SMALL MOLECULAR INHIBITORS OF STING SIGNALING COMPOSITIONS AND METHODS OF USE” (STINGINN INC., priority 2021, published 2024).
